{"source": "patent US20200123208A1", "about": "“PEPTIDES AND NEMATICIDAL COMPOSITIONS” (priority 2017, published 2020)", "type_in_all_cases": "in vivo", "key": {"[1]": {"test_system": "Meloidogyne incognita J2s", "assay": "Serotonin-induced stylet thrusting assay, M. incognita J2s", "conditions": "100 μM uNLP, 24 h, 5 mM serotonin", "protocol": "(§1) Predicted uNLPs from both M. incognita and G. pallida were synthesised by EZBiolab and dissolved into pH adjusted ddH2O to make a 5 mM stock which was aliquoted and stored at −20° C. J2s of both M. incognita and G. pallida were incubated for 24 hours in 200 μl of each peptide in a 24 well plate (SPL Lifesciences, South Korea) at a defined concentration.\nStylet thrusting assays where performed by incubating 100 M. incognita or G. pallida J2s for 15 minute in 5 mM or 2 mM serotonin (Sigma Aldrich, USA), respectively. J2s were placed on a glass slide and stylet thrusts were counted for randomly selected J2s, for 1 minute each. Counting took place for a maximum of 15 minutes. Longer incubations yielded inconsistent results. At least 30 J2s were counted for each neuropeptide treatment."}, "Globodera pallida J2s [2]": {"test_system": "Globodera pallida J2s", "assay": "Tomato invasion assay, G. pallida J2s", "conditions": "exogenous pre-treatment of J2s", "protocol": "as §1\n(§2) Tomato seeds were sterilised with 2.5% NaOCl for 15 minutes, washed 5 times in ddH2O and germinated on 0.5% Murashige and Skoog plates at 23° C. […] Invasion assays were performed by mixing 500 pre-treated M. incognita or G. pallida J2s with agar slurry and a single tomato seedling (2 days post germination) in a 6 well plate. Assays were left at 23° C. for 24 hours in the case of M. incognita and at 18° C. for 24 hours in the case of G. pallida under a 16 hour light and 8 hour darkness cycle. Seedlings were stained using acid fuschin [69] and the number of nematodes within the roots counted."}, "[3]": {"test_system": "Meloidogyne incognita J2s", "assay": "B. subtilis and C. reinhardtii plant protection assay, M. incognita", "conditions": "tomato", "protocol": "as §2\n(§3) B. subtilis were grown overnight in LB media containing ampicillin (100 μg/ml) at 37° C. with shaking, and harvested in the log phase of growth determined by measuring OD600nm. Five ml of culture at 0.5 OD was spun down and the pellet mixed with 3 ml of agar slurry and 500 J2s from either G. pallida or M. incognita. C. reinhardtii clones were grown at 23° C. with shaking, cultures in the log phase were measured at OD750 and 5 ml of culture at 0.5 OD was pelleted by centrifugation. C. reinhardtii pellets were mixed with 3 ml of agar slurry and 500 J2s from either G. pallida or M. incognita. Plant invasion assays were performed as described above.\nuNLP secretion inserts, and vector pChlamy_3 were digested using Kpnl/Xbal (New England Biolabs, USA), ligated using T4 ligase (New England Biolabs, USA), and cloned into Escherichia coli One Shot® TOP10 chemically competent cells (Life Technologies, USA) following manufacturer's instructions. Ampicillin (Sigma Aldrich, USA) was used to select E. coli containing the pChlamy_3 plasmid, which was subsequently extracted using the High Pure Plasmid Isolation Kit (Roche) and sequenced (Eurofins Genomics, UK) to identify correct clones. C. reinhardtii was transformed by electroporation following manufacturer's instructions (GeneArt® Chlamydomonas Engineering Kit, Life Technologies) and individual colonies grown on TAP-Agar-Hygromycin plates (10 μg/mL) (Sigma Aldrich, USA) at 23° C. Colonies were picked and grown at 23° C. in 100 ml TAP growth media (Invitrogen, USA) with constant orbital agitation. qRT-PCR was performed to identify clones with the highest level of uNLP expression, which were then selected for downstream assays (pChlamy universal FWD: […], nlp-15b REV: CTACTAGTCGAGGCCGGTA; Mi-nlp-9f REV: GAACGGGCGGATGAAGTAG).\nuNLP secretion inserts, and vector pBE-S were digested using Xbal/Mlul (New England Biolabs, USA), ligated using T4 ligase (New England Biolabs, USA), and cloned into E. coli One Shot® TOP10 chemically competent cells (Life Technologies, USA) following manufacturer's instructions. […]"}, "Globodera pallida J2s [4]": {"test_system": "Globodera pallida J2s", "assay": "B. subtilis and C. reinhardtii plant protection assay, G. pallida", "conditions": "tomato", "protocol": "as §2\nas §3, with “above. […]” for “above.”"}, "[5]": {"test_system": "mixed-stage Caenorhabditis elegans", "assay": "C. elegans chemotaxis assay (non-target nematode)", "conditions": "100 μM, 24 h, no statistically significant impact", "protocol": "C. elegans wild-type N2 Bristol strain were obtained from the C. elegans Genomics Center and maintained on a Escherichia coli (strain OP50) lawn on nematode growth medium (NGM) agar plates (3 g/l NaCl, 17 g/l agar, 2.5 g/l peptone, 5 mg/l cholesterol, 25 mM KH2PO4 (pH 6.0), 1 mM CaCl2, 1 mM MgSO4) at 20° C.. Chemotaxis assays were performed in a 9 cm diameter Petri dish on NGM agar which was split into a positive and negative side with a central ‘dead zone’ of 1.5 cm diameter. 100 mixed-staged C. elegans were washed three times in M9 buffer and soaked in 100 μM PPN uNLP, or M9 vehicle control for 24 hours. 2 μl of 50 mM sodium acetate, 0.5% pyrazine, 0.5% benzaldehyde or 0.5% diacetyl was spotted onto the positive side, 2 μl of ddH2O was spotted onto the negative side. Pyrazine, benzaldehyde and diacetyl volatile attractants were assayed immediately whereas the water soluble sodium acetate was assayed 18 hours following addition to the plate. Assays were maintained in the dark at 20° C., and counted after 1 hour."}, "[6]": {"test_system": "Steinernema carpocapsae infective juveniles", "assay": "S. carpocapsae host-finding assay (non-target nematode)", "conditions": "S. carpocapsae IJs, 100 μM, 24 h; no statistically significant impact; control 0.2315", "protocol": "S. carpocapsae were cultured in Galleria mellonella at 23° C. Infective juveniles (IJs) were collected using a White trap in PBS. Freshly emerged IJs were used for each assay. 100 IJs were incubated for 24 hours in 100 μM of selected uNLPs, and host-finding assays performed as in Morris et al.."}}}
{"sequence": "SFDSFTGPGFTGLD [Mi-NLP-15b]", "values": [{"measurement": "rate of serotonergic-induced stylet thrusting compared with controls", "setting": "[1]", "value": 129.9, "unit": "%+/−10.59"}, {"measurement": "effect of exogenous peptide exposure on G. pallida host invasion (in words)", "setting": "Globodera pallida J2s [2]", "value": "does not inhibit host invasion"}, {"measurement": "M. incognita invasion relative to control", "setting": "[3]; B. subtilis cultures secreting the uNLP", "value": 26.63, "unit": "%+/−8.12"}, {"measurement": "M. incognita invasion relative to untransformed C. reinhardtii", "setting": "[3]; C. reinhardtii cultures secreting the uNLP", "value": 10.82, "unit": "%+/−6.574"}, {"measurement": "G. pallida invasion relative to control groups", "setting": "Globodera pallida J2s [4]; B. subtilis secreting the uNLP", "value": 51.98, "unit": "%+/−13.29"}, {"measurement": "G. pallida invasion relative to controls", "setting": "Globodera pallida J2s [4]; C. reinhardtii expressing the uNLP", "value": 30.95, "unit": "%+/−9.021"}, {"measurement": "chemotaxis index (Cl) towards sodium acetate", "setting": "[5]; control 0.4269", "value": "0.3142+/−0.039"}, {"measurement": "chemotaxis index (Cl) towards pyrazine", "setting": "[5]; control 0.4904", "value": "0.4959+/−0.089"}, {"measurement": "chemotaxis index (Cl) towards diacetyl", "setting": "[5]; control 0.6638", "value": "0.6640+/−0.126"}, {"measurement": "chemotaxis index (Cl) towards benzaldehyde", "setting": "[5]; control 0.7026", "value": "0.7032+/−0.075"}, {"measurement": "insect host-finding index (Cl) towards Galleria mellonella", "setting": "[6]", "value": "0.2225+/−0.043"}]}
